The text below walks through data of patent publication EP4029501A1, “COMBINATION OF POLYAROMATIC UREA DERIVATIVES AND GLUCOCORTICOID OR HDAC INHIBITOR FOR THE TREATMENT OF DISEASES OR CONDITIONS ASSOCIATED WITH MUSCLE CELLS AND/OR SATELLITE CELLS” (Anagenesis Biotechnologies, priority 2021, dated 2022).

What all share (type): cell-based, human
The subject of assay [1] is muscle progenitors derived from DMD hiPSC. As to the kind of experiment: Myotube assay: total myotube area per well (alpha-actinin staining). To be noted: Homo sapiens, Myotube, 72 h, DMD or WT cell source not given; for Emax: efficacy, MA = normalized Myotube Area, 3 days incubation; for EC50: myogenic activity, half-maximal generation of myotubes, 10 points dose-response 1.5 nM to 30 µM, 3 days. In short, it runs like this: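 DMD hiPSC-derived muscle progenitors (NCRM-1 background) plated at 3500 cells/well in K5 medium with 5 µM Y-27632, then exposed to compound at 1.5 nM–30 µM for 3 days at 37°C. Cells fixed on day 7, alpha-actinin-immunostained and total myotube area per well quantified; duplicates averaged, EC50 and normalized myotube area derived.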

For assay [2] the test system is unchanged. As to the kind of experiment: Dose response assay of combination treatments with Givinostat or Prednisolone: total myotube area. As to conditions: for improvement of potency: versus alone; for potency: change in words; for EC50: Homo sapiens, Myotube, compound alone, DRC 4.5 nM to 10 µM, DMD hMPs (figure 6), read-out: potency (EC50) on myotube surface. From the text: (§1) • Figure 1 - the workflow of the myotube assay, aiming at monitoring myogenic activity of compounds and effect on satellite-like cells. • Figure 2 - the myogenic activity of compound (i) in a dose-response assay, as shown by an increase of the total myotube surface/well upon increase of compound concentration. • Figure 3 - the positive effect on satellite-like cells of compound (i) in a dose-response assay, as shown by the increase of Pax7-positive cell percentage upon increase of compound concentration. • Figure 4 - representative images for the dose-response of the total myotube area readout for compound (i), corresponding to Figure 2. • Figure 5 - representative images for the dose-response of the percentage of Pax7-positive cell readout for compound (i), corresponding to Figure 3. • Figure 6 - Dose-response curve on muscle progenitors derived from DMD hiPSC. Treatment of muscle progenitors derived from DMD hiPSC with Prednisolone or Givinostat alone inducing a beneficial effect on α-actinin expression (representative of the myotube surface) and a loss of nearly 50 % of Pax7 positive cells (representative of the population of satellite cells) in a dose-dependent manner. The highest concentration represented is 10 µM. The arrows show the point a 0.3 µM. Efficacy values correspond to the highest score of normalized myotube surface (y-axis). Activity values correspond to the half maximal effective concentration (EC50; x-axis). The curve fits were calculated using a 4-parameter logistic regression model (Graphpad PRISM software). Error bars show standard deviation (SD). The picture on the right panel is representative of the highest myotube surface value of the dose-response curve. • Figures 7-9 - Dose-response curve on muscle progenitors derived from DMD hiPSC. Treatment in a dose-dependent manner of muscle progenitors derived from DMD hiPSC with indicated compound alone or with combination with Prednisolone or Givinostat at 0.3 µM. The combination induced an improvement of myogenic capabilities seen with α-actinin expression (representative of the myotube surface) and harbor no worsening of the Pax7 positive cells (representative of the population of satellite cells) compared to Prednisolone or Givinostat alone. The highest concentration of DRC is 10 µM.
Efficacy values correspond to the highest score of normalized myotube surface (y-axis). Activity values correspond to the half maximal effective concentration (EC50; x-axis). The curve fits were calculated using a 4-parameter logistic regression model (Graphpad PRISM software). Error bars show standard deviation (SD). The picture on the right panel is representative of the highest myotube surface value of the dose-response curve.
(§2) Figure 1 provides an example of a Myotube assay workflow. At day 0, hMP are thawed and 3.1 million cells are plated into a T75-flask coated with hESC-qualified Matrigel™ (Corning) in SkGM proliferating medium (PromoCells), supplemented with 5 µM Y-27632 (Tocris Bioscience). On day 2, SkGM proliferating medium is refreshed. On day 4, hMP are harvested and transferred into a 384-well plate coated with collagen type I at a density of 3500 cells/well in a DMEM-based medium, containing 5% of knockout serum replacement (Gibco), 1% PenStrep (Gibco), 1% MEM NEAA (Gibco) and 0.1 mM 2-mercaptoethanol (Gibco) (hereafter "K5 medium") and 5 µM Y-27632. Compounds to be tested are then added in the medium and incubated for 3 days at 37°C. On day 7, cells are fixed and immunostained. For example, myotubes (alpha-actinin staining) and satellite-like (Pax7 staining) cells can be analyzed for total myotube area per well or Pax7-positive cell quantification.
DMD hMPs were put in the Myotube assay according to the workflow described in example 2.1. […]

The test system of the next assay is Pax7 positive cells. As to the kind of experiment: Dose response assay of combination treatments with Givinostat or Prednisolone: percentage of Pax7-positive cells. To be noted: for drop of satellite cells content: compound alone at 0.3 µM, DMD hMPs (figure 6); for loss of Pax7 positive cells: dose-dependent, highest concentration 10 µM (Figure 6 legend).
Source text: as §1, §2
DMD hMPs were put in the Myotube assay according to the workflow described in example 2.1. In particular, Prednisolone (Sigma) or Givinostat (Exclusive Chemistry) were added in all conditions at a fixed concentration equal to 0.3 µM in combination with compounds az or bw or q tested in DRC at 8 concentrations ranging from 4.5 nM to 10 µM, starting from day 4. Also, as control, DRCs with the same range of concentrations were done with Prednisolone alone, Givinostat (figure 6) alone or compounds az or bw or q alone (figures 7 to 9). […]

The mark [3] stands for this setting: DRC 4.5 nM to 10 µM in combination with Givinostat at 0.3 µM.
The mark [4] stands for this setting: DRC 4.5 nM to 10 µM in combination with Prednisolone at 0.3 µM.
Setting [5] is: in combination with Givinostat at 0.3 µM.
Setting [6] is: in combination with Prednisolone at 0.3 µM.

On to `Cc1ccc(-n2nc(C(C)(C)C)cc2NC(=O)Nc2ccc(Oc3ccnc4[nH]c(=O)cnc34)cc2C(F)(F)F)cc1` [(az), 1-(3-(tert-butyl)-1-(p-tolyl)-1H-pyrazol-5-yl)-3-(4-((3-oxo-3,4-dihydropyrido[2,3-b]pyrazin-8-yl)oxy)-2-(trifluoromethyl)phenyl)urea], for which the Emax (as a rule, the maximal effect, on the per cent scale that the assay sets) in assay [1] is at least 75%. The EC50 (commonly the concentration needed to bring the measured effect to its halfway point) in assay [1] lay in the range of 500 to 1000 nM. In addition, the total myotube surface result in assay [2] (setting [3]) and in assay [2] (setting [4]) was “increased the total myotube surface” each time. In addition, the improvement of potency result in assay [2] (setting [5]) and in assay [2] (setting [6]) was “two fold” in each case. Moreover, in the assay with Pax7 positive cells (setting [5]), the satellite cell population entry is listed as “at least maintained”. The “satellite cell population increase” value in the assay on Pax7 positive cells (setting [6]) is given as 1.5 fold.

`CSc1cc(Oc2ccnc3[nH]c(=O)cnc23)ccc1NC(=O)Nc1cc(C(C)(C)C)nn1-c1cccc(F)c1` [(bw), 1-(3-(tert-butyl)-1-(3-fluorophenyl)-1H-pyrazol-5-yl)-3-(2-(methylthio)-4-((3-oxo-3,4-dihydropyrido[2,3-b]pyrazin-8-yl)oxy)phenyl)urea] displayed an Emax in assay [1] of at least 75%. Besides, the EC50 in assay [1] is under 500 nM. Also, the total myotube surface result in assay [2] (setting [3]) and in assay [2] (setting [4]) was “increased the total myotube surface” throughout. The potency entry is “improved” in assay [2] (setting [5]) and “slightly decreased” in assay [2] (setting [6]). In the assay with Pax7 positive cells (compound alone, DRC 4.5 nM to 10 µM), the satellite cell pool entry is “decrease of satellite cell pool which is only seen at high concentration”. Also, the satellite cell population entry in the assay on Pax7 positive cells (setting [5]) and in the assay with Pax7 positive cells (setting [6]) was “the decrease of satellite cell pool which is only seen at high concentration of treatment with compound bw alone is slightly diminished” throughout.

As to `CC(C)(C)c1cc(NC(=O)Nc2ccc(Oc3ccnc4[nH]c(=O)cnc34)cc2F)sn1` [(q), 1-(3-(tert-butyl)isothiazol-5-yl)-3-(2-fluoro-4-((3-oxo-3,4-dihydropyrido[2,3-b]pyrazin-8-yl)oxy)phenyl)urea], the Emax in assay [1] lay within 50 to 75%. Moreover, the EC50 in assay [1] was in the range of 1000 to 5000 nM. In addition, the total myotube surface result in assay [2] (setting [3]) and in assay [2] (setting [4]) was “strongly increased” each time. The improvement of potency in assay [2] (setting [5]) worked out at 1.4 fold; in assay [2] (setting [6]), 5 fold. Moreover, the satellite cell population entry with Pax7 positive cells (setting [5]) and in the assay with Pax7 positive cells (setting [6]) was “maintenance of the satellite cells in all conditions” in each case.

For the compound `CC(C)(C)c1cc(NC(=O)Nc2ccc(Oc3ccnc4[nH]c(=O)cnc34)cn2)n(-c2ccccc2)n1` [(u), 1-(3-(tert-butyl)-1-phenyl-1 H-pyrazol-5-yl)-3-(5-((3-oxo-3,4-dihydropyrido[2,3-b]pyrazin-8-yl)oxy)pyridin-2-yl)urea], in assay [1], the Emax lay in the range of 25 to 50% and the EC50 is 1000 to 5000 nM.

In assay [1], `CC(C)(C)c1cc(NC(=O)Nc2ccc(Oc3ccnc4[nH]c(=O)cnc34)cc2C(F)(F)F)n(-c2ccccc2)n1` [(v), 1-(3-(tert-butyl)-1-phenyl-1H-pyrazol-5-yl)-3-(4-((3-oxo-3,4-dihydropyrido[2,3-b]pyrazin-8-yl)oxy)-2-(trifluoromethyl)phenyl)urea] returned an Emax of at least 75% and an EC50 of under 500 nM.

Turning to `Cc1nc2c(Oc3ccc(NC(=O)Nc4cc(C(C)(C)C)nn4-c4ccccc4)c(F)c3)ccnc2c(=O)[nH]1` [(w), 1-(3-(tert-butyl)-1-phenyl-1 H-pyrazol-5-yl)-3-(2-fluoro-4-((2-methyl-4-oxo-3,4-dihydropyrido[3,2-d]pyrimidin-8-yl)oxy)phenyl)urea], in assay [1], the Emax was 50 to 75% and the EC50 fell in the range of 1000 to 5000 nM.

Turning to `O=C(Nc1ccc(Oc2ccnc3[nH]c(=O)cnc23)cc1F)Nc1c2c(nn1-c1ccccc1)CCC2` [(x), 1-(2-fluoro-4-((3-oxo-3,4-dihydropyrido[2,3-b]pyrazin-8-yl)oxy)phenyl)-3-(2-phenyl-2,4,5,6-tetrahydrocyclopenta[c]pyrazol-3-yl)urea], in assay [1], the Emax is 25 to 50% and the EC50 was at least 5000 nM.

On to `O=C(Nc1ccc(Oc2ccnc3[nH]c(=O)cnc23)cc1F)Nc1c(-c2ccccc2)nn2c1CCC2` [(y), 1-(2-fluoro-4-((3-oxo-3,4-dihydropyrido[2,3-b]pyrazin-8-yl)oxy)phenyl)-3-(2-phenyl-5,6-dihydro-4H-pyrrolo[1,2-b]pyrazol-3-yl)urea], for which, in assay [1], the Emax lay within 25 to 50% and the EC50 was at least 5000 nM.

For the compound `CSc1cc(Oc2ccnc3[nH]c(=O)cnc23)ccc1NC(=O)Nc1nnc(C(C)(C)C)s1` [(z), 1-(5-(tert-butyl)-1,3,4-thiadiazol-2-yl)-3-(2-(methylthio)-4-((3-oxo-3,4-dihydropyrido[2,3-b]pyrazin-8-yl)oxy)phenyl)urea], in assay [1], the Emax was at least 75% and the EC50 was at least 5000 nM.

For the compound `CCN(CC)Cc1ccc2cc(COC(=O)Nc3ccc(C(=O)NO)cc3)ccc2c1` [Givinostat, reference compound], in assay [2], the EC50 is at most 170 nM. In addition, the “drop of satellite cells content” value with Pax7 positive cells is listed as “about 50%”. Moreover, the “loss of Pax7 positive cells” value in the assay on Pax7 positive cells (compound alone) is about 50%.

In the case of `C[C@]12C=CC(=O)C=C1CC[C@@H]1[C@@H]2[C@@H](O)C[C@@]2(C)[C@H]1CC[C@]2(O)C(=O)CO` [Prednisolone, reference compound], in assay [2], the EC50 was at most 170 nM. Besides, the “drop of satellite cells content” value in the assay with Pax7 positive cells is “about 50%”. The “loss of Pax7 positive cells” value in the assay with Pax7 positive cells (compound alone) is about 50%.
